Where two headings read alike, the source gives them in different places. Each block holds one molecule with its values, some of them ahead of it.
Tests used:
[1] = system: total (truncated + full length) C7 in RDEB_L1 cells; assay: AlphaLISA quantification of total C7 in RDEB_L1 cells; assay type: cell-based, human; conditions: for EC50: Homo sapiens
Description: (§1) The AlphaLISA assay was developed in-house by using the biotin-conjugated rabbit polyclonal antibody anti-C7 (LSBio LS-298147) and conjugating the acceptor beads (PerkinElmer 6772001) to a monoclonal anti-Collagen type VII antibody produced in mouse, clone LH7.2 (Thermo MA5-13,432). Formulation of the mAb clone LH7.2 was exchanged to PBS and concentrated 5 × by using Amicon® Ultra-0.5 centrifugal filters up to 1 mg/ml. The conjugation procedure was carried out according to the protocol provided by PerkinElmer.
(§2) For compound treatment in RDEB patient-derived transformed keratinocytes, 5,000 cells were plated in 20 µL of supplemented KGM media containing 20 ng/mL TGFβ2 (SIGMA GF113) without GA-1000 in 384-well cell culture plates (Greiner 781098). The day after, 5 µL of test compounds prepared 5 × in supplemented KGM without GA-1000 were added over cells and incubated for 48 h at 37 °C and 5% CO2. For compound treatment in HEK293^R578X, 10,000 cells were plated in 20 μL of DMEM (High Glucose, 2 mM L-Glutamine, sodium pyruvate, and FBS 10%) in 384-well cell culture plates (Greiner 781,098,). The day after, 5 μL of test compounds prepared 5 × in DMEM complete medium were added over cells and incubated for 48 h at 37 °C and 5% CO2.
(§3) After the treatment process, 2.5 µL of RIPA buffer 10 x (Abcam ab156034) were added over the […] of cells for 20 min at room temperature to obtain a complete cell lysis. Then, 2 μL of sample (i.e., cell lysate with supernatant) were transferred to the AlphaLISA plate (PerkinElmer 6,059,340) containing […] of antibodies mixture ([…] of acceptor Beads-Ab and […] of biotin-rAb) prepared in AlphaLISA buffer 1 x (PerkinElmer AL00F). The reaction was incubated for 90 min at room temperature. Finally, 10 μL of […] of donor beads (PerkinElmer 6760002,) were added to the reaction under subdued light, mixed gently, and incubated for 3 h at room temperature. AlphaLISA signal was detected with an Envision microplate reader (Perkin Elmer) using the following setting: Filter: AlphaScreen, Excitation time: 180 ms, Integration time: 300 ms.
(§4) Statistical analyses were performed using GraphPad Prism v. 7.04 (La Jolla, California). Results are shown as mean ± SD of experimental replicates. Dose–response curves to assess compound treatment effect were plotted in a four-parameter logistic model. Relative EC50, representing the total drug concentration producing a 50% effect, was calculated in the four-parameter logistic equation. Comparisons of collagen protein and mRNA expression in different experimental conditions were made using ANOVA, followed by a post hoc test. statistical significance was considered with p values < 0.05.

[2] = system: total (truncated + full length) C7 in RDEB_L5 cells; assay: AlphaLISA quantification of total C7 in RDEB_L5 cells; assay type: cell-based, human; conditions: for EC50: Homo sapiens, total C7 AlphaLISA, 48 h, 20 ng/mL TGFß2, relative EC50, mean ± SD, read-out: Increase in C7 levels EC50; for Increase in C7 levels Emax, % vs baseline: 20 ng/mL TGFß2
Description: as §1, §2, §3, §4

[3] = system: total C7 in HEK293^R578X cells; assay: AlphaLISA quantification of total C7 in recombinant HEK293^R578X cells; assay type: cell-based, human; conditions: for EC50: Homo sapiens, total C7 AlphaLISA, 48 h, relative EC50, mean ± SD, read-out: Increase in C7 levels EC50
Description: as §1, §2, §3, §4

[4] = Cytotoxicity, ATP levels, normal human keratinocytes (NHK); assay type: cell-based; conditions: normal human keratinocytes (NHK)
Description: The viability of RDEB patient-derived cell lines or NHK was evaluated by measuring the ATP levels as an indirect readout of the potential cytotoxicity effect of compounds. Cells were plated and treated exactly with the same conditions as those followed in the AlphaLISA assay, described above. To measure ATP levels, cells were processed using the ATPlite™ 1step luminescence-based assay (PerkinElmer 6,016,731), following the manufacturer’s protocol. 25 μL of ATPlite™ reagent was added directly over cells and plates were covered with a sealing film and shaken for 25 min using a microtiter plate shaker. Luminescence was measured in a Luminoskan Ascent luminometer (Thermo Fisher Scientific). 10 μM of Staurosporine was used as a reference compound and control for the total cytotoxicity.

[5] = system: COL7A1 mRNA in RDEB_L1 and RDEB_L5 cells; assay: Real-time qPCR of COL7A1 mRNA; assay type: cell-based, human; conditions: 24 h, 20 ng/mL TGFβ2
Description: For real-time qPCR, 15,000 RDEB keratinocytes or normal human epidermal keratinocytes were plated in a 96-well cell culture plate in 80 µL of supplemented KGM medium without GA-1000 and containing 20 ng/mL of TGFβ2 for RDEB keratinocytes, and cells were incubated overnight at 37 °C and 5%CO2. The day after, cells were treated with 20 µL of test compounds prepared 5 × in supplemented KGM without GA-100, for 24 h at 37 °C and 5% CO2. For the mRNA extraction, the medium was removed, cells were washed with PBS, and conserved at -80 °C until the total RNA extraction.
RNA extraction was conducted using the RNeasy 96 Kit (4) (Qiagen 74181) following the manufacturer’s instructions. Total RNA was recovered in 50 µL of RNase-free water and the yield of extracted RNA was quantified using a NanoDrop 2000 Spectrophotometer (ThermoFisher). Purified RNA was stored at -80 °C until RT-qPCR.
Real time-qPCR was performed by using the iTaq Universal Probes One-Step Kit, (cat. 1725140, Bio-Rad) and according to the manufacturer’s instructions. […] RT-qPCR was performed to quantify the COL7A1 mRNA (exon 64) expression.
For COL7A1 quantitative gene expression, human GAPDH was used as the endogenous control. Results were analyzed with the QuantStudio Real-Time PCR Software.

[6] = RDEB_L1 cells, total C7 AlphaLISA, 48 h, 20 ng/mL TGFß2, mean ± SD, read-out: Increase in C7 levels EC50(rel)
[7] = human, NHK cells, ATP levels, read-out: Cytotox. IC50

EC50 [1, 6]: 1700 ± 480 µM
EC50 ([1]; in RDEB_L1 and RDEB_L5 cells, read-out: EC50 (range over two cell lines)): 420 to 1700 µM
EC50 [2]: 420 ± 390 µM
SMILES: CNC(C)C1CCC(N)C(OC2C(N)CC(N)C(OC3OCC(C)(O)C(NC)C3O)C2O)O1 (stereo not shown) [Gentamicin, reference compound]
concentrations at which activity was detectable in the AlphaLISA assay ([1]; RDEB_L1 and L5 cells): > 100 µM
Increase in C7 levels Emax, % vs baseline ([1]; RDEB_L1 cells, 20 ng/mL TGFß2): 199 ± 112 at 4100 % vs baseline
Increase in C7 levels Emax, % vs baseline ([2]; at 1600 µM): 41 ± 3.3 at 1600 % vs baseline
EC50 [3]: 4500 ± 2900 µM
Increase in C7 levels Emax, % vs baseline ([3]; at 4100 µM): 89 ± 17 at 4100 % vs baseline
IC50 [4, 7]: 1600 ± 280 µM

EC50 ([1]; RDEB_L1 cells, no gentamicin (Fig. 4b), read-out: EC50 of compound 1, total C7 AlphaLISA): 4.56 µM
EC50 [1, 6]: 3 ± 1.8 µM
decrease in the EC50 in the presence of increasing concentrations of gentamicin ([1]; RDEB_L1 cells): threefold
EC50 [2]: 4.7 ± 0.8 µM
SMILES: NC(=O)Cn1ccc2ccc(-c3cnc(N)c(C(=O)NC4C5CC6CC4CC(O)(C6)C5)n3)cc21 (stereo not shown) [Compound 1]
Increase in C7 levels Emax, % vs baseline ([1]; RDEB_L1 cells, at 12 µM, 20 ng/mL TGFß2): 3279 ± 1236 at 12 % vs baseline
effect of the combination with gentamicin on total C7 levels ([1]; RDEB_L1 cells, both at concentrations in the range of their EC50, 48 h, 20 ng/mL TGFβ): synergistic effect
Increase in C7 levels Emax, % vs baseline ([2]; at 12.5 µM): 1401 ± 384 at 12.5 % vs baseline
IC50 [4, 7]: 19 ± 2.4 µM
levels of COL7A1 mRNA (qPCR) [5]: TGFβ2 was required for full upregulation

SMILES: C#Cc1cc(-c2ccncc2)c(-c2cccc(F)c2)nc1N [Compound 7]
EC50 [1, 6]: 17 ± 6.6 µM
EC50 ([1]; Table 5 SAR, C7 AlphaLISA, 20 ng/mL TGFß2 (cell line not given; compound 7 values equal RDEB_L1 of Table 1), read-out: Increase in C7 levels EC50 (rel)): 17 ± 6.6 µM
Increase in C7 levels Emax, % vs baseline ([1]; RDEB_L1 cells, at 50 µM, 20 ng/mL TGFß2): 412 ± 80 at 50 % vs baseline
Increase in C7 levels Emax, % vs baseline ([1]; Table 5 SAR, at 50 μM, 20 ng/mL TGFß2): 412 ± 80 at 50 % vs baseline
EC50 [2]: 23 ± 11 µM
Increase in C7 levels Emax, % vs baseline ([2]; at 50 µM): 293 ± 58 at 50 % vs baseline
EC50 [3]: 60 ± 4.6 µM
Increase in C7 levels Emax, % vs baseline ([3]; at 100 µM): 96 ± 35 at 100 % vs baseline
IC50 ([4]; read-out: cytotoxicity IC50): > 100 µM
levels of COL7A1 mRNA (qPCR) [5]: did not result in an increase in C7 mRNA levels
